This series can be described thus: Pharmacokinetics of GHB in plasma after oral gavage of GHB delivering compounds, with relative oral bioavailability vs sodium oxybate. The note with it: vehicle water; for % AUC0-4 hr, relative oral bioavailability vs study comparator (sodium oxybate) / % Cmax, relative oral bioavailability vs study comparator (sodium oxybate): mean conjugate/mean comparator.
Where [1] appears, read: dose molar equivalent of 100 mg/kg NaGHB.
Where [2] appears, read: dose equivalent to 80 mg/kg NaGHB.

Each structure is given as a SMILES string.

Take `O=C1CCCO1` [GBL]: under setting [1], the “% AUC0-4 hr, relative oral bioavailability vs study comparator (sodium oxybate)” value came out at 27% and the “% Cmax, relative oral bioavailability vs study comparator (sodium oxybate)” value is 70%. Further, the “Tmax of GHB in plasma” value (oral gavage, dose molar equivalent of 100 mg/kg NaGHB) came out at 15 min.
Regarding `CCOC(=O)OCCCC(=O)O` [O-(ethoxycarbonyl)-GHB, O-(Ethoxycarbonyl)-GHB], under setting [2], the “% AUC0-4 hr, relative oral bioavailability vs study comparator (sodium oxybate)” value turned out to be 54% and the “% Cmax, relative oral bioavailability vs study comparator (sodium oxybate)” value is 51%.
